Laboratory results published in patent publication US20240327415A1, “Multicomponent Complexes, Including Salts, Crystalline Forms, and Hydrates and Solvates of ENT1 Inhibitors” (iTeos Belgium SA, priority 2023, published 2024).
Converted amounts (≈) assume the structure as drawn. Like-named read-outs stand apart in the source and are kept apart here.

What was measured:
Format in all cases: physicochemical
[1] = Variable Humidity X-Ray Powder Diffraction (VH-XRPD)
Method: In the examples below, VH-XRPD analysis was carried out on a Philips X'Pert Pro Multipurpose diffractometer equipped with a humidity chamber. The samples were scanned between 4 and 36° 2θ using Cu K radiation (α1λ=1.54060 Å; α2=1.54443 Å; β=1.39225 Å; α1: α2 ratio=0.5; most, if not all, B radiation is removed from the beam using an X-ray mirror) running in Bragg-Brentano geometry (step size 0.008° 2θ) using 40 kV/40 mA generator settings. Measurements were carried out from 2-90% RH, with a final measurement taken at 40% RH.
VH-XRPD analysis was carried out on a Philips X'Pert Pro Multipurpose diffractometer equipped with a humidity chamber. The samples were scanned between 4 and 36° 2θ using Cu K radiation (α1 λ=1.54060 Å; α2=1.54443 Å; β=1.39225 Å; α1:α2 ratio=0.5; most, if not all, β radiation is removed from the beam using an X-ray mirror) running in Bragg-Brentano geometry (step size 0.008° 2θ) using 40 kV/40 mA generator settings. Measurements were carried out from 6-90% relative humidity (RH), with a final measurement taken at 40% RH.

[2] = pH solubility studies in buffers and biorelevant media (Example 16); conditions: for solubility at 24 h: thermodynamic from solid
Method: (§1) Example 16—pH Solubility Studies—(1) Crystalline Form 2 Compound 1 di(hydrogen sulfate) trihydrate, (2) Crystalline Form 3 Compound 1 di(hydrogen sulfate), and (3) Crystalline Form 4 Compound 1 mono(hydrogen sulfate): pH solubility studies were carried out on the prepared crystalline Form 2 Compound 1 di(hydrogen sulfate) trihydrate, crystalline Form 3 Compound 1 di(hydrogen sulfate) and crystalline Form 4 Compound 1 mono(hydrogen sulfate) in the following media: (1) HCl/KCl, pH 1.2; (2) Acetate, pH 4.5; (3) Phosphate, pH 6.8; (4) FaSSIF; (5) FeSSIF; and (6) FaSSGF. Slurries of the hydrogen sulfate forms were prepared in the appropriate medium and stirred at 25° C. For the experiments in the buffer media, the pH of the slurry samples was measured and adjusted as required after 1 hour and 23 hours of the slurrying. Additional solid was added where dissolution was observed post-adjustment. The pH of the samples in the biorelevant media was measured at the 23 hour timepoint. No pH adjustment was made for the biorelevant media. After a total of 24 hours of slurrying, the mother liquors were extracted via centrifugation, and the concentrations and solution purity were determined by HPLC. The residual solids were isolated and analyzed by XRPD and are shown in FIG. 77, FIG. 78, and FIG. 79. The assessment was repeated for some of the samples, where required.

[3] = Karl Fischer coulometric titration (water content)
Method: In the examples below, KF titration measured using either an In Motion KF Autosampler or Direct Addition Method. The In Motion KF Autosampler was carried out via the following procedure. 15-20 mg of solid was weighed into a 10 mL glass vial and tightly sealed with a screw cap. Samples were analyzed using a Mettler Toledo C30SX and an InMotion KFOven Autosampler at 130° C. Samples were analyzed in duplicate and an average moisture content reported. See table below for further details.
The Direct Addition Method was carried out via the following procedure. 15-20 mg of solid material was accurately weighed into a vial. The solid was then manually introduced into the titration cell of a Mettler Toledo C30 Compact Titrator. The vial was back-weighed after the addition of the solid and the weight of the added solid entered on the instrument. Titration was initiated once the sample had fully dissolved in the cell. The water content was calculated automatically by the instrument as a percentage and the data printed.

[4] = Variable Temperature X-Ray Powder Diffraction (VT-XRPD); design: key: Crystalline Form 3 di(hydrogen sulfate); Crystalline Form 9 di(hydrogen sulfate); Melt/Amorphous; conditions: second Heating, hold 30 min
Method: In the examples below, VT-XRPD analysis was carried out on a Philips X'Pert Pro Multipurpose diffractometer equipped with a temperature chamber. The samples were scanned between 4 and 36° 2θ using Cu K radiation (α1 λ=1.54060 Å; α2=1.54443 Å; β=1.39225 Å; α1: α2 ratio=0.5; most, if not all, B radiation is removed from the beam using an X-ray mirror) running in Bragg-Brentano geometry (step size 0.008° 2θ) using 40 kV/40 mA generator settings. Measurements were carried out from ambient temperature to an upper limit of 250° C., with a final measurement taken after cooling.
VT-XRPD analysis was carried out on a Philips X'Pert Pro Multipurpose diffractometer equipped with a temperature chamber. The samples were scanned between 4 and 36° 2θ using Cu K radiation (α1 λ=1.54060 Å; α2=1.54443 Å; β2=1.39225 Å; α1:α2 ratio=0.5; most, if not all, β radiation is removed from the beam using an X-ray mirror) running in Bragg-Brentano geometry (step size 0.008° 2θ) using 40 kV/40 mA generator settings. Measurements were carried out from ambient temperature to an upper limit of 250° C., with a final measurement taken after cooling.

[5] = pH solubility studies in buffers and biorelevant media (Example 16); design: key: A: amorphous; Crystalline Form 10 mono(hydrogen sulfate); conditions: pH 6.8 (Phosphate), 25° C., 24 h
Method: as §1

[6] = after 24 hours slurrying in the media (Form 2: all samples except pH 4.5 Attempt 1)
[7] = FaSSGF, 25° C., 24 h, pH after 24 h 1.98
[8] = FaSSIF, 25° C., 24 h, pH after 24 h 3.93
[9] = FeSSIF, 25° C., 24 h, pH after 24 h 4.34
[10] = pH 1.2 (HCl/KCl), 25° C., 24 h, pH after 24 h 1.57→1.33
[11] = pH 4.5 (Acetate), 25° C., 24 h, pH after 24 h 4.43
[12] = pH 6.8 (Phosphate), 25° C., 24 h, pH after 24 h 5.19→6.94

## CCCN1CCNCCCNC(=O)c2cc(OC)c(OC)c(c2)OCCC[C@@H](OC(=O)c2cc(OC)c(OC)c(OC)c2)CC1
[1]
  VH-XRPD: Conv. To Form 5 at: 5 at 6% RH
  VH-XRPD: input form retained at: at 10-80% RH
[1]; Desorption, 6% RH, hold 60 min
  VH-XRPD Results: 5, PC
[2]; FaSSGF, 25° C., 24 h, pH after 24 h 0.93
  ML purity: 99.67 % area
[2]; FaSSGF, 25 °C, pH 0.93, fassgf or other biorelevant, FaSSGF, 25° C., 24 h, pH after 24 h 0.93, read-out: Solub.
  solubility at 24 h: 81.1 mg/mL (≈ 128 mM)
[2]; FaSSIF, 25° C., 24 h, pH after 24 h 1.12
  ML purity: 99.80 % area
[2]; FaSSIF, 25 °C, pH 1.12, fassif, FaSSIF, 25° C., 24 h, pH after 24 h 1.12, read-out: Solub.
  solubility at 24 h: 76.6 mg/mL (≈ 121 mM)
[2]; FeSSIF, 25° C., 24 h, pH after 24 h 1.07
  ML purity: 99.72 % area
[2]; FeSSIF, 25 °C, pH 1.07, fessif, FeSSIF, 25° C., 24 h, pH after 24 h 1.07, read-out: Solub.
  solubility at 24 h: 133 mg/mL (≈ 211 mM)
[2]; HCl/KCl buffer, 25 °C, pH 1.2, simulated gastric fluid, pH 1.2 (HCl/KCl), attempt 1, 25° C., 24 h, pH after 24 h 0.98→1.22, read-out: Solub.
  solubility at 24 h: > 86.7 mg/mL
[2]; acetate buffer pH 4.5, 25 °C, pH 4.5, aqueous buffer, pH 4.5 buffer media, Attempt 1, 25° C., 24 hours, read-out: solubility
  solubility at 24 h: < 20 mg/mL
[2]; acetate buffer, 25 °C, pH 4.5, aqueous buffer, pH 4.5 (Acetate), attempt 1, 25° C., 24 h, pH after 24 h 4.53, read-out: Solub.
  solubility at 24 h: 17.8 mg/mL (≈ 28.2 mM)
[2]; acetate buffer, 25 °C, pH 4.5, aqueous buffer, pH 4.5 (Acetate), attempt 2, 25° C., 24 h, pH after 24 h 1.68→4.62, read-out: Solub.
  solubility at 24 h: 94.5 mg/mL (≈ 150 mM)
[2]; [6]
  solution purity of the extracted mother liquors: > 99 % area
[2]; buffers and biorelevant media, 25 °C, pH 1.2, aqueous buffer, pH 1.2 and 4.5 buffers and all the biorelevant media, slurry 25° C., 24 hours, read-out: solubility
  solubility at 24 h: > 75 mg/mL
[2]; pH 1.2
  pH solubility: pH 1.2: >87 mg/mL
  pH solubility: residual solid: mg/mL, no solid
[2]; pH 1.2 (HCl/KCl), attempt 1, 25° C., 24 h, pH after 24 h 0.98→1.22
  ML purity: 99.13 % area
[2]; pH 4.5
  pH solubility: pH 4.5: 95 mg/mL
  pH solubility: residual solid: mg/mL, Form 4
[2]; pH 4.5 (Acetate), attempt 1, 25° C., 24 h, pH after 24 h 4.53
  ML purity: 89.50 % area
[2]; pH 4.5 (Acetate), attempt 2, 25° C., 24 h, pH after 24 h 1.68→4.62
  ML purity: 99.76 % area
[2]; pH 4.5 Attempt 1
  solution purity of the extracted mother liquors: 89 % area
[2]; pH 6.8
  pH solubility: pH 6.8: 12 mg/mL
  pH solubility: residual solid: mg/mL, Gum
[2]; pH 6.8 (Phosphate), attempt 1, 25° C., 24 h, pH after 24 h 1.01→6.87
  ML purity: 99.43 % area
[2]; phosphate buffer, 25 °C, pH 6.8, aqueous buffer, pH 6.8 (Phosphate), attempt 1, 25° C., 24 h, pH after 24 h 1.01→6.87, read-out: Solub.
  solubility at 24 h: 12 mg/mL (≈ 19 mM)
[2]; phosphate buffer, 25 °C, pH 6.8, aqueous buffer, pH 6.8 (Phosphate), attempt 2, 25° C., 24 h, pH after 24 h 4.79→6.90, read-out: Solub.
  solubility at 24 h: 6.1 mg/mL (≈ 9.66 mM)
[3]
  KF moisture content: 6.74% moisture
[4]; 150° C.
  VT-XRPD Results: Melt
[4]; 160° C.
  VT-XRPD Results: Melt

## COc1cc(C(=O)O[C@@H]2CCCOc3cc(cc(OC)c3OC)C(=O)NCCCN3CCCN(CC2)CC3)cc(OC)c1OC.O=S(=O)(O)O
[5]
  XRPD of residual solids: A
[2]; [7]
  ML purity: 99.82 % area
  Solub.: 36.7 mg/mL
[2]; [8]
  ML purity: 99.86 % area
  Solub.: 44.9 mg/mL
[2]; [9]
  ML purity: 99.69 % area
  Solub.: 124.2 mg/mL
[2]; [6]
  solution purity of the extracted mother liquors: > 98 % area
[2]; pH 1.2
  pH solubility: pH 1.2: 134 mg/mL
  pH solubility: residual solid: mg/mL, Form 4
[2]; [10]
  ML purity: >99.99 % area
  Solub.: 134.1 mg/mL
[2]; pH 1.2 and FeSSIF media, 25° C., 24 hours
  solubility: > 100 mg/mL
[2]; pH 4.5
  pH solubility: pH 4.5: 47 mg/mL
  pH solubility: residual solid: mg/mL, Form 4
[2]; [11]
  ML purity: 99.86 % area
  Solub.: 46.9 mg/mL
[2]; pH 6.8
  pH solubility: pH 6.8: 62 mg/mL
  pH solubility: residual solid: mg/mL, Gum
[2]; [12]
  ML purity: 98.30 % area
  Solub.: 62.0 mg/mL
[2]; the other media assessed, 25° C., 24 hours
  solubility: 30 to 80 mg/mL
[3]
  KF moisture content: 14.87% moisture
